This test relates to Canine Purkinje fiber. Kind of test: In vitro electro-physiological screen using canine Purkinje fibers (action potential characteristics, microelectrode). It is filed as cell-based. Conditions: for Emax at 10 µM / Emax at 30 µM / Emax at 100 µM: read-out: MaxAPD95: maximum observed effect on APD95 from control value; for EC10: read-out: C10 APD95: concentration of drug which causes a 10% increase or decrease (-) in APD95 from control value; for EC20: read-out: C20 APD95: concentration of drug which causes a 20% increase or decrease (-) in APD95 from control value; for inhibition at 100 µM: at 100 (concentration, μM); for Vmax: change in the rate of rise of phase 0 of the action potential from control value (in words): concentration not given, NE = no effect. Here is the method: The primary method for evaluating these compounds as antiarrhythmic agents was an in vitro electro-physiological screen using canine Purkinje fibers. Using conventional microelectrode techniques the effects of the drugs on the action potential characteristics of the Purkinje fiber were measured. Both Class I and Class III antiarrhythmic agents can be disinguished using this method.

Setting [1] is: Canis lupus familiaris, purkinje, at 10 μM, basic cycle length 1000 milliseconds.
[2] abbreviates: Canis lupus familiaris, purkinje, normal stimulated beat, basic cycle length 1000 milliseconds, NR = not reached.
Setting [3] is: Canis lupus familiaris, purkinje.
The mark [4] stands for this setting: Canis lupus familiaris, purkinje, read-out: Vmax: change in the rate of rise of phase 0 of the action potential from control value.
Where [5] appears, read: Canis lupus familiaris, purkinje, basic cycle length 1000 milliseconds.
Where [6] appears, read: Canis lupus familiaris, purkinje, at 10 (concentration, μM), read-out: Vmax: change in the rate of rise of phase 0 of the action potential from control value.
The mark [7] stands for this setting: normal stimulated beat, basic cycle length 1000 milliseconds, NR = not reached.

Each structure is given as a SMILES string. Where a name gives a salt, the structure may show the parent alone. Read-outs that look alike come from different tables or passages of the source.

As for `CCCCCCCn1cc[n+](CC(=O)c2ccc(NS(C)(=O)=O)cc2)c1` [Compound I-39, 1-Heptyl-3-[2-[4-[(methanesulfonyl)amino]phenyl]-2-oxoethyl]imidazolium br omide], under setting [1], the Emax at 10 µM was 21%. Also, under setting [2], the EC10 turned out to be 1.7 µM and the EC20 was determined as 9 µM.

In the case of `CCCCCCC[n+]1ccn(CCC#Cc2ccc(Cl)cc2)c1` [Compound I-29, 1-[4-(4-Chlorophenyl)-3-butynyl]-3-heptylimidazolium 4-methylbenzenesulfonate], under setting [3], the EC10 is 20 µM and the Emax at 30 µM worked out at 15%. The inhibition at 20 µM under setting [4] was found to be 20%.

`CCC[n+]1ccn(CCCCc2ccc(Cl)cc2)c1.O=P([O-])(O)O` [Compound I-16, 1-[4-(4-Chlorophenyl)butyl]-3-propylimidazolium dihydrogenphosphate]: the Emax at 10 µM under setting [1] is 11%. Moreover, the EC10 under setting [2] worked out at 6 µM. Moreover, for the setting “at >10 (concentration, μM)”, the “Vmax: change in the rate of rise of phase 0 of the action potential from control value” is given as -20%.

As for `CCCCCCC[n+]1ccn(C/C=C\Cc2ccc(Cl)cc2)c1` [Compound I-42, (Z)-1-[4-(4-Chlorophenyl)-2-butenyl]-3-heptylimidazolium dihydrogenphosphate], under setting [5], the Emax at 100 µM is 12%. The inhibition at 100 µM under setting [4] is 26%. Also, the EC10 under setting [2] is 38 µM.

Turning to `Nc1ccc(C(=O)Cn2ccnc2)cc1` [II-5, 1-(4-Aminophenyl)-2-(1H-imidazol-1-yl)ethanone], the “Vmax: change in the rate of rise of phase 0 of the action potential from control value (in words)” value (“Vmax: change in the rate of rise … (in words)” below) is “Minimal”. Besides, the Emax at 10 µM under setting [1] stood at 13%. Besides, the EC10 under setting [2] was determined as 4 µM.

With `O=[N+]([O-])c1ccc(CCn2ccnc2)cc1` [II-8, 1-[2-(4-Nitrophenyl)ethyl]-1H-imidazole hydrochloride], the Emax at 100 µM under setting [5] stood at 29%. Where the note is “Canis lupus familiaris, purkinje, at 0.1 (concentration, μM), read-out: Vmax: change in the rate of rise of phase 0 of the action potential from control value”, the inhibition at 0.1 µM worked out at 15%. Under setting [2], the EC10 is 7 µM and the EC20 turned out to be 30 µM.

As for `CS(=O)(=O)Nc1ccc(C(O)Cn2ccnc2)cc1` (stereo not shown) [II-4, N-[4-(1-Hydroxy-2-(1H-imidazol-1-yl)ethyl]phenyl]methanesulfonamide], under setting [1], the Emax at 10 µM was 23%. For the same compound, the inhibition at 10 µM under setting [6] turned out to be 15%. Moreover, under setting [2], the EC10 stood at 2 µM and the EC20 was 7 µM.

Consider `CCCCCCC[n+]1ccn(C(C)CCCc2ccc(Cl)cc2)c1` (stereo not shown) [Compound I-25, 1-[4-(4-Chlorophenyl)-1-methylbutyl]-3-heptylimidazolium 4-methylbenzenesulfonate], for which, under setting [3], the EC10 came out at 10 µM and the Emax at 10 µM was 10%.

As to `Cc1n(CCCCc2ccc(Cl)cc2)cc[n+]1C` [Compound I-34, 1-[4-(4-Chlorophenyl)butyl]-2,3-dimethylimidazolium chloride], under setting [1], the Emax at 10 µM was 25%. Moreover, under setting [2], the EC10 turned out to be 1.4 µM and the EC20 was 6 µM.

For `Cc1n(C)cc[n+]1CCCCc1ccc(NS(C)(=O)=O)cc1` [Compound I-30, 1,2-Dimethyl-3-[4-[4-[[methanesulfonyl]amino]phenyl]butyl]imidazolium methanesulfonate], the Emax at 10 µM under setting [1] is 23%. Under setting [2], the EC10 was 1 µM and the EC20 was found to be 7 µM.

Take `O=[N+]([O-])c1ccc(CCCCn2ccnc2)cc1` [II-1, 1-[4-(4-Nitrophenyl)butyl]imidazole hydrochloride]: the Emax at 10 µM under setting [1] worked out at 27%. Under setting [2], the EC10 is 1.2 µM and the EC20 was 4 µM.

Consider `CCCCCCC[n+]1ccn(CCCCc2ccc(NC(C)=O)cc2)c1.Cc1ccc(S(=O)(=O)[O-])cc1` [Compound I-14, 1-[4-(4-(Acetylamino)phenyl)butyl]-3-heptylimidazolium 4-methylbenzenesulfonate], for which the “Vmax: change in the rate of rise … (in words)” value is recorded as “increased”. Under setting [3], the EC10 came to 13 µM, the EC20 stood at 30 µM and the Emax at 30 µM is 21%.

Regarding `C[n+]1ccn(CC(O)c2ccc(NS(C)(=O)=O)cc2)c1` (stereo not shown) [Compound I-38, 1-[2-Hydroxy-2-[4-[(methanesulfonyl)amino]phenyl]ethyl]-3-methylimidazolium iodide], the Emax at 10 µM under setting [1] turned out to be 63%. Also, the inhibition at 10 µM under setting [6] was 5%. In addition, under setting [2], the EC10 stood at 0.3 µM and the EC20 worked out at 0.8 µM.

For the compound `O=[N+]([O-])c1ccc(C(O)Cn2ccnc2)cc1` (stereo not drawn) [II-6, α-(4-Nitrophenyl)-1H-imidazole-1-ethanol], under setting [5], the Emax at 100 µM worked out at 28%. Besides, under setting [2], the EC10 worked out at 15 µM and the EC20 is 43 µM.

Take `CCCCCCC[n+]1ccn(CCCCc2ccc(Cl)cc2)c1` [Compound I-1, 1-[4-(4-Chlorophenyl)butyl]-3-heptylimidazolium chloride]: where the note is “Canis lupus familiaris, purkinje, at 30 μM, basic cycle length 1000 milliseconds”, the Emax at 30 µM is 27%. Besides, the inhibition at 15 µM (Canis lupus familiaris, purkinje, at 15 (concentration, μM), read-out: Vmax: change in the rate of rise of phase 0 of the action potential from control value) turned out to be 20%. Further, the EC10 under setting [2] amounted to 12 µM.

As for `CCCCCCC[n+]1ccn(CCCCc2ccc(F)cc2)c1` [Compound I-19, 1-[4-(4-Fluorophenyl)butyl]-3-heptylimidazolium dihydrogenphosphate], the Emax at 10 µM under setting [1] is 20%. For the same compound, the inhibition at 10 µM under setting [6] came to 6%. In addition, under setting [2], the EC10 was 1 µM and the EC20 amounted to 10 µM.

Turning to `CS(=O)(=O)Nc1ccc(CCn2ccnc2)cc1` [II-7, N-[4-[2-(1H-Imidazol-1-yl)ethyl]phenyl]methanesulfonamide], the Emax at 100 µM under setting [5] was 47%. Further, under setting [2], the EC10 turned out to be 2 µM and the EC20 stood at 10 µM.

In the case of `CCCCCCCn1cc[n+](CCCCc2ccc(NS(C)(=O)=O)cc2)c1.O=P([O-])(O)O` [Compound I-22, 1-Heptyl-3-[4-[4-[[(methyl)sulfonyl]amino]phenyl]butyl]imidazolium dihydrogenphosphate], the “Vmax: change in the rate of rise … (in words)” value is “Minimal”. Besides, the Emax at 10 µM under setting [1] was 39%. In addition, under setting [2], the EC10 turned out to be 1.3 µM and the EC20 turned out to be 3 µM.

As to `CCCCC[n+]1ccn(CCCCc2ccc(Cl)cc2)c1` [Compound I-20, 1-[4-(4-Chlorophenyl)butyl]-3-pentylimidazolium dihydrogenphosphate], the Emax at 10 µM under setting [1] was found to be 23%. For the same compound, under setting [2], the EC10 was determined as 0.8 µM and the EC20 was found to be 6 µM.

Turning to `Cn1cc[n+](CC(=O)c2ccc(NS(C)(=O)=O)cc2)c1` [Compound I-44, 1-Methyl-3-[2-[4-((methylsulfonyl)amino)phenyl]-2-oxoethyl]-1H-imidazoliumbromide], the Emax at 10 µM under setting [1] was 38%. Besides, under setting [2], the EC10 was 1 µM and the EC20 amounted to 2.3 µM.

Consider `CS(=O)(=O)Nc1ccc(C(=O)Cn2ccnc2)cc1` [II-2, N-[4-(1H-Imidaz-1-ylacetyl)phenyl]methanesulfonamide], for which, under setting [5], the Emax at 100 µM was found to be 67%. Besides, the inhibition at 100 µM under setting [4] was found to be 15%. Under setting [2], the EC10 is 3 µM and the EC20 came to 14 µM.

Turning to `CCCCCCCn1cc[n+](CCCCc2ccc(OC)cc2)c1.[Br-]` [Compound I-7], under “at 10 μM, basic cycle length 1000 milliseconds”, the “MaxAPD95: maximum observed effect on APD95 from control value” was 26%. Under “at 10 (concentration, μM), 10 µM”, the “Vmax: change in the rate of rise of phase 0 of the action potential from control value” was -12%. Also, under setting [7], the EC10 is 0.5 µM and the EC20 is listed as 8 µM.

Regarding `Cn1cc[n+](CCc2ccc(NS(C)(=O)=O)cc2)c1` [Compound I-43, 1-Methyl-3-[2-[4-((methylsulfonyl)amino)phenyl]ethyl]-1H-imidazolium iodide], the Emax at 10 µM under setting [1] was 21%. Under setting [2], the EC10 is 2 µM and the EC20 is 8 µM.

Regarding `CCCCn1cc[n+](CCCCc2ccc(Cl)cc2)c1` [Compound I-21, 1-Butyl-3-[4-(4-chlorophenyl)butyl]imidazolium dihydrogenphosphate], the Emax at 10 µM under setting [1] amounted to 25%. Under setting [2], the EC10 was determined as 2 µM and the EC20 was found to be 6 µM.

Turning to `O=C(Cn1ccnc1)c1ccc([N+](=O)[O-])cc1` [II-3, 2-(1H-Imidaz-1-yl)-1-(4-nitrophenyl)ethanone hydrochloride], the Emax at 100 µM under setting [5] came out at 29%. Under setting [2], the EC10 was 20 µM and the EC20 was 50 µM.

(Values after patent US4613609A, “Antiarrhythmic imidazoliums” (Schering A. G., priority 1984, dated 1986).)
